Assay results published in ChEMBL document CHEMBL3885861, “Open TG-GATES”.

Organism: Rattus norvegicus
Test: Open TG-GATES - Regimen: Single
Assay type: toxicity, organism-based, Sprague-Dawley
Set-up: regimen Single, gender Male, age 6 weeks
Details: in vivo, po, 100 mg/kg, route gavage, dose level Low; for APTT / Bas / Eos / Fbg / Hb / Ht / Lym / MCH / MCHC / MCV / Mono / Neu / PT / Plat / RBC / Ret / WBC: tissue Blood; for KIDNEY_L / KIDNEY_R / KIDNEY_TOTAL: tissue Kidney; for LIVER: tissue Liver; for A/G / ALP / ALT / AST / BUN / CRE / Ca / Cl / DBIL / GLC / IP / K / LDH / Na / PL / RALB / TBIL / TC / TG / TP / gamma-GTP: tissue Plasma

CCCCNC(=O)NS(=O)(=O)c1ccc(C)cc1 [TOLBUTAMIDE]
TERMINAL_BW (3 h): 205.3 g
APTT (3 h): 21 s
Bas (3 h): 0%
Eos (3 h): 1%
Fbg (3 h): 274.2 mg/dL
Hb (3 h): 13.4 g/dL
Ht (3 h): 41.4%
Lym (3 h): 73%
MCH (3 h): 20.9 pg
MCHC (3 h): 32.3%
MCV (3 h): 64.7 fL
Mono (3 h): 3.4%
Neu (3 h): 21.8%
PT (3 h): 13.2 s
Plat (3 h): 122.1 x10_4/uL
RBC (3 h): 641 x10_4/ul
Ret (3 h): 8.8%
WBC (3 h): 90.7 x10_2/uL
KIDNEY_L (3 h): 1 g
KIDNEY_R (3 h): 1 g
KIDNEY_TOTAL (3 h): 2 g
LIVER (3 h): 9.2 g
A/G (3 h): 0.9
ALP (3 h): 1360.8 IU/L
ALT (3 h): 49 IU/L
AST (3 h): 92 IU/L
BUN (3 h): 10.8 mg/dL
CRE (3 h): 0.2 mg/dL
Ca (3 h): 10.8 mg/dL
Cl (3 h): 106.2 meq/L
DBIL (3 h): 0.004 mg/dL
GLC (3 h): 156.2 mg/dL
IP (3 h): 8.5 mg/dL
K (3 h): 4 meq/L
LDH (3 h): 63.6 IU/L
Na (3 h): 141.4 meq/L
PL (3 h): 129 mg/dL
RALB (3 h): 2.5 g/dL
TBIL (3 h): 0.058 mg/dL
TC (3 h): 73.4 mg/dL
TG (3 h): 48 mg/dL
TP (3 h): 5.3 g/dL
gamma-GTP (3 h): 1.2 IU/L
TERMINAL_BW (6 h): 204.4 g
APTT (6 h): 16.5 s
Bas (6 h): 0%
Eos (6 h): 1%
Fbg (6 h): 278.2 mg/dL
Hb (6 h): 13.5 g/dL
Ht (6 h): 41.6%
Lym (6 h): 75%
MCH (6 h): 20.9 pg
MCHC (6 h): 32.3%
MCV (6 h): 64.8 fL
Mono (6 h): 2.2%
Neu (6 h): 20.4%
PT (6 h): 13.2 s
Plat (6 h): 124.3 x10_4/uL
RBC (6 h): 642.6 x10_4/ul
Ret (6 h): 9.1%
WBC (6 h): 98.3 x10_2/uL
KIDNEY_L (6 h): 0.9 g
KIDNEY_R (6 h): 0.9 g
KIDNEY_TOTAL (6 h): 1.8 g
LIVER (6 h): 8.8 g
A/G (6 h): 0.9
ALP (6 h): 1403.8 IU/L
ALT (6 h): 40.4 IU/L
AST (6 h): 71.8 IU/L
BUN (6 h): 10.4 mg/dL
CRE (6 h): 0.2 mg/dL
Ca (6 h): 10.9 mg/dL
Cl (6 h): 106.8 meq/L
DBIL (6 h): 0.006 mg/dL
GLC (6 h): 137.4 mg/dL
IP (6 h): 9.8 mg/dL
K (6 h): 3.9 meq/L
LDH (6 h): 50.2 IU/L
Na (6 h): 141.8 meq/L
PL (6 h): 134 mg/dL
RALB (6 h): 2.5 g/dL
TBIL (6 h): 0.06 mg/dL
TC (6 h): 72.4 mg/dL
TG (6 h): 64.2 mg/dL
TP (6 h): 5.2 g/dL
gamma-GTP (6 h): 1.2 IU/L
TERMINAL_BW (9 h): 201.2 g
APTT (9 h): 16.5 s
Bas (9 h): 0%
Eos (9 h): 1.2%
Fbg (9 h): 288.4 mg/dL
Hb (9 h): 13.6 g/dL
Ht (9 h): 41.6%
Lym (9 h): 72.6%
MCH (9 h): 20.9 pg
MCHC (9 h): 32.7%
MCV (9 h): 63.9 fL
Mono (9 h): 1.6%
Neu (9 h): 24%
PT (9 h): 13.5 s
Plat (9 h): 122.2 x10_4/uL
RBC (9 h): 650.4 x10_4/ul
Ret (9 h): 8.3%
WBC (9 h): 89.4 x10_2/uL
KIDNEY_L (9 h): 0.9 g
KIDNEY_R (9 h): 0.9 g
KIDNEY_TOTAL (9 h): 1.8 g
LIVER (9 h): 7.9 g
A/G (9 h): 0.9
ALP (9 h): 1515.4 IU/L
ALT (9 h): 39.2 IU/L
AST (9 h): 80.4 IU/L
BUN (9 h): 10 mg/dL
CRE (9 h): 0.2 mg/dL
Ca (9 h): 10.7 mg/dL
Cl (9 h): 107.4 meq/L
DBIL (9 h): 0.002 mg/dL
GLC (9 h): 158.2 mg/dL
IP (9 h): 9.7 mg/dL
K (9 h): 4.1 meq/L
LDH (9 h): 66.6 IU/L
Na (9 h): 142.4 meq/L
PL (9 h): 122.8 mg/dL
RALB (9 h): 2.5 g/dL
TBIL (9 h): 0.064 mg/dL
TC (9 h): 69.4 mg/dL
TG (9 h): 34.6 mg/dL
TP (9 h): 5.2 g/dL
gamma-GTP (9 h): 1 IU/L
TERMINAL_BW (24 h): 220.2 g
APTT (24 h): 17.7 s
Bas (24 h): 0.2%
Eos (24 h): 1%
Fbg (24 h): 273.6 mg/dL
Hb (24 h): 13.3 g/dL
Ht (24 h): 41%
Lym (24 h): 80.4%
MCH (24 h): 20.8 pg
MCHC (24 h): 32.5%
MCV (24 h): 64.1 fL
Mono (24 h): 2.4%
Neu (24 h): 15.4%
PT (24 h): 12.9 s
Plat (24 h): 129 x10_4/uL
RBC (24 h): 640.4 x10_4/ul
Ret (24 h): 7.7%
WBC (24 h): 82.4 x10_2/uL
KIDNEY_L (24 h): 1 g
KIDNEY_R (24 h): 1 g
KIDNEY_TOTAL (24 h): 2 g
LIVER (24 h): 10.2 g
A/G (24 h): 0.9
ALP (24 h): 1457.6 IU/L
ALT (24 h): 46.4 IU/L
AST (24 h): 73 IU/L
BUN (24 h): 14.6 mg/dL
CRE (24 h): 0.2 mg/dL
Ca (24 h): 11.2 mg/dL
Cl (24 h): 104.4 meq/L
DBIL (24 h): 0.008 mg/dL
GLC (24 h): 174.6 mg/dL
IP (24 h): 8.7 mg/dL
K (24 h): 4.2 meq/L
LDH (24 h): 69 IU/L
Na (24 h): 142 meq/L
PL (24 h): 148.2 mg/dL
RALB (24 h): 2.5 g/dL
TBIL (24 h): 0.066 mg/dL
TC (24 h): 80.6 mg/dL
TG (24 h): 70.8 mg/dL
TP (24 h): 5.3 g/dL
gamma-GTP (24 h): 1.2 IU/L
